Patent US10478445B2, “Boronic acid derivatives of resveratrol for activating deacetylase enzymes” (Georgetown University, priority 2013, dated 2019)

Experiments:
[1] = target: T1, purified human SIRT1 enzyme (Homo sapiens, UniProt Q96EB6); assay: In vitro SIRT assay (Fluor-de-Lys-SIRT1 deacetylase assay); type: biochemical; details: 50 μM of suramin added to reaction
T1 construct: purchased Enzo Life Sciences
T1 sequence (Q96EB6 1-747): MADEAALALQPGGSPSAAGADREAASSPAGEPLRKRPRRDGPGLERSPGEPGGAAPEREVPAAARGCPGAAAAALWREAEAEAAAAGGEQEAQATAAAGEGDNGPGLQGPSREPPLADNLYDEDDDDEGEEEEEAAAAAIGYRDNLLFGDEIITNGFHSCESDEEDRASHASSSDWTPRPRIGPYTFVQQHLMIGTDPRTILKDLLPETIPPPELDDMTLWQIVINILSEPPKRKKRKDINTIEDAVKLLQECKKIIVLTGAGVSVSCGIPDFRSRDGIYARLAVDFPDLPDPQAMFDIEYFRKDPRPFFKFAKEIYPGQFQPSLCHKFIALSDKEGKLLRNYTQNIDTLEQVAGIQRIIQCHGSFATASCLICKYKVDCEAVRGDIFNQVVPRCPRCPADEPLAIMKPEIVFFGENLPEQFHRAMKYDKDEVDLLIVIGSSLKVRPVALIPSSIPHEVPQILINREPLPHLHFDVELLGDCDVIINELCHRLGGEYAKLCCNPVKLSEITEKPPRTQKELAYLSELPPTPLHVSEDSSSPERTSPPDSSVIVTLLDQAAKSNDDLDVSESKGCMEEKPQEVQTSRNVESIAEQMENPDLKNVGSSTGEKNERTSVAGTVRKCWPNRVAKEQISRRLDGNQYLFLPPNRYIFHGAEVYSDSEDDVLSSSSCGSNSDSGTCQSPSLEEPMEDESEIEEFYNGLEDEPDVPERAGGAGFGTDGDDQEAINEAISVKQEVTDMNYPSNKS
Description: The Fluor-de-Lys-SIRT1 and SIRT2 deacetylase assay were performed as manufacturer's instruction (Enzo Life Sciences, Farmingdale, N.Y.). For competition assay, 50 μM of suramin was added to reaction.

mtp53 = assay: Western blot analysis of acetyl-mtp53 (K382) and mtp53 level; type: cell-based; details: HS578T; 10 μM suramin 1 hr, then 1 μM YK-3-237 23 hr
Description: Preparation of cell lysates and western blot analyses were performed. Antibodies were obtained from the following sources: Ac-p53 (K382; #2525), Ac-α-tubulin (K40; #3971), phospho-ACC (S78; #3661), and ACC (#3676) from Cell Signaling (Danvers, Mass.); PARP (#556494) from BD Pharmingen (San Jose, Calif.); p53 (V1003) from Biomeda (Foster City, Calif.); ERα (sc-543) and SIRT1 (sc-15404) from Santa Cruz (Santa Cruz, Calif.); α-tubulin, β-Actin (A1978), and horseradish peroxidase-conjugated secondary antibodies from Sigma (St. Louis, Mo.). Chemiluminescence reagent was obtained from Santa Cruz or Thermo Scientific (Rockford, Ill.).

[2] = target: T1, purified human SIRT1 enzyme; details: reported; cited from earlier work
acetyl-p53 = details: reported; cited from earlier work

Row | Compound | effect on YK-3-237-mediated SIRT1 activation (competition assay) [1] | effect of pre-treatment on YK-3-237-mediated deacetylation and reduction of mtp53 (mtp53) | in vitro SIRT1 activity toward nascent p53 peptide [2] | acetyl-p53 in cells (acetyl-p53)
1 | Cc1ccc(C(=O)Nc2ccc(S(=O)(=O)O)c3cc(S(=O)(=O)O)cc(S(=O)(=O)O)c23)cc1NC(=O)c1cccc(NC(=O)Nc2cccc(C(=O)Nc3cc(C(=O)Nc4ccc(S(=O)(=O)O)c5cc(S(=O)(=O)O)cc(S(=O)(=O)O)c45)ccc3C)c2)c1 [suramin] | antagonized YK-3-237-mediated SIRT1 activation | reversed both deacetylation of mtp53 (K382) and reduction of mtp53 protein |  | 
2 | O=C(Nc1ccccc1-c1cn2c(CN3CCNCC3)csc2n1)c1cnc2ccccc2n1 [SRT1720] |  |  | could not activate in vitro SIRT1 activity toward nascent p53 peptide | reduce acetyl-p53 in cells
